The record followed here is ChEMBL document CHEMBL4052712, “Design and optimization of highly-selective, broad spectrum fungal CYP51 inhibitors” (Bioorg Med Chem Lett, 2017).

As usually defined, the IC50 is the concentration that inhibits the measured activity by half. Low readings indicate higher potency, high ones lower potency. By half-life is commonly meant how long it takes for the measured level to halve. A low value points to rapid decline. In general, AUC(0-t) refers to exposure summed from dosing to a finite time, without extrapolation to infinity. A lower AUC(0-t) goes with less exposure. As usually defined, the Cmax is the maximum level reached in the sampled fluid or tissue. In general, Tmax refers to the time from dosing to the highest level.

The test system of data set [1] is Lung. Nature of the data set: Drug level in Swiss albino mouse lung at 5 mg/kg, po after 48 hrs assessed as relative AUC (48 hrs) level relative to plasma drug level by HPLC/MS/MS method. The data set is classed as ADME, organism-based. Particulars: other tissue.
The target in data set [2] is T1, Cytochrome P450 11B1, mitochondrial (Homo sapiens, UniProt P15538).
T1 sequence (P15538 whole entry): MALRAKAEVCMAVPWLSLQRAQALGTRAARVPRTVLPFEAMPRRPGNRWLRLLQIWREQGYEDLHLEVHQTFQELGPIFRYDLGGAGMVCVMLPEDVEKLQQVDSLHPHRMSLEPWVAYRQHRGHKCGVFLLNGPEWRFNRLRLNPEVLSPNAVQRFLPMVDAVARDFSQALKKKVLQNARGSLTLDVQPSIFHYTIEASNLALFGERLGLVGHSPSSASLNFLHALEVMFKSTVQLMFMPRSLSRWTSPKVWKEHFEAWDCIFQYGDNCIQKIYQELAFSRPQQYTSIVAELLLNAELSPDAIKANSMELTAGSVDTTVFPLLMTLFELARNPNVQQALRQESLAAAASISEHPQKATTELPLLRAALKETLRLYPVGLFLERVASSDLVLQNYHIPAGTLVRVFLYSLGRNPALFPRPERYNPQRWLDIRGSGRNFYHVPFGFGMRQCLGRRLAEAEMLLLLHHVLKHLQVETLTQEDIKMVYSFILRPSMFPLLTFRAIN
Description: Inhibition of CYP11B1 in human hepatocyte microsomes using deoxycortisol substrate by HPLC/MS/MS method. The data set is classed as ADME.

Data set [3] can be described thus: Half life in Swiss albino mouse plasma at 5 mg/kg, po measured during 0.5 to 48 hrs post dose by HPLC/MS/MS method. Type of data set: ADME, organism-based.
In data set [4] the target is Lanosterol 14-alpha demethylase (Candida albicans (strain SC5314 / ATCC MYA-2876) (Yeast), UniProt P10613). Description: Inhibition of CYP51 in Candida albicans assessed as inhibition of microbe growth incubated for 48 hrs by CLSI M27-A3 guideline based method.
Lanosterol 14-alpha demethylase, sequence (P10613 whole entry): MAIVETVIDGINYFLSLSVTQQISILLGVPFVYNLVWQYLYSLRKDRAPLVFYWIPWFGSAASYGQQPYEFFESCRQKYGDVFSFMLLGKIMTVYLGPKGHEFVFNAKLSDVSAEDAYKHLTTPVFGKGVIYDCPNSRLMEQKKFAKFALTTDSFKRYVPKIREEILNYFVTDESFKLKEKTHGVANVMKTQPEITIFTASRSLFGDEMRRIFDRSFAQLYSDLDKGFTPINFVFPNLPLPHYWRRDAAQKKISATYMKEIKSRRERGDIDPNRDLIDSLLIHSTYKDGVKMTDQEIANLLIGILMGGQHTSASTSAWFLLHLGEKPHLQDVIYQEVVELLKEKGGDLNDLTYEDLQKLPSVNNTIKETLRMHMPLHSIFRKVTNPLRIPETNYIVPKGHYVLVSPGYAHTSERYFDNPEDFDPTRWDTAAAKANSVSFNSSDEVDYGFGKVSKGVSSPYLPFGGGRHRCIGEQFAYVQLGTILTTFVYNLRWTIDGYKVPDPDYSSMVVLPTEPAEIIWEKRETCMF
Data set [5] is described as follows: AUClast in Swiss albino mouse at 5 mg/kg, po measured during 0.5 to 48 hrs post dose by HPLC/MS/MS method. The note with it: in vivo. Set-up: dose 5 mg/kg, route oral, time 0 - last. Type of data set: ADME, organism-based.
Data set [6] is described as follows: Cmax in Swiss albino mouse at 5 mg/kg, po measured during 0.5 to 48 hrs post dose by HPLC/MS/MS method. The data set is classed as ADME, organism-based. The arrangement: dose 5 mg/kg, route oral. Particulars: in vivo.
The target in data set [7] is T2, Aromatase (Homo sapiens, UniProt P11511).
T2 sequence (P11511 whole entry): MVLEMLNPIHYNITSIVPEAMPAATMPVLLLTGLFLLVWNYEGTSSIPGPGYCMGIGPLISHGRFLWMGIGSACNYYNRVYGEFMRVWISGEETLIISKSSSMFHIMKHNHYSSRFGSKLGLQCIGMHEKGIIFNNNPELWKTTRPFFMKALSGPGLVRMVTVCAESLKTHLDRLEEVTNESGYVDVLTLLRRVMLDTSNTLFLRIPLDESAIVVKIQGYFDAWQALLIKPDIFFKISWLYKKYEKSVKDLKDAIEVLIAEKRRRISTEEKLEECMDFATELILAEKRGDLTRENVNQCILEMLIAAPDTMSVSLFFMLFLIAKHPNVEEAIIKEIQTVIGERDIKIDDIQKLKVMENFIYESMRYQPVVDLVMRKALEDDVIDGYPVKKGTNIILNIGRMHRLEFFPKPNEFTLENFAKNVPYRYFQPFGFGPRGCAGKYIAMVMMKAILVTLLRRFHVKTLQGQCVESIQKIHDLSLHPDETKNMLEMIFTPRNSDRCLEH
Description: Inhibition of CYP19 in human hepatocyte microsomes using testosterone substrate by HPLC/MS/MS method. The data set is classed as ADME.

A short description of data set [8]: Tmax in Swiss albino mouse at 5 mg/kg, po measured during 0.5 to 48 hrs post dose by HPLC/MS/MS method. The data set is classed as ADME, organism-based. Particulars: in vivo.
In data set [9] the test system is Brain. Description: Drug level in Swiss albino mouse brain at 5 mg/kg, po after 48 hrs assessed as relative AUC (48 hrs) level relative to plasma drug level by HPLC/MS/MS method. The data set is classed as ADME, organism-based.
Data set [10] deals with Cytochrome P450 3A4 (Homo sapiens, UniProt P08684). Description: Inhibition of CYP3A4 in human hepatocyte microsomes using testosterone substrate by HPLC/MS/MS method. Type of data set: ADME.
Cytochrome P450 3A4, sequence (P08684 whole entry): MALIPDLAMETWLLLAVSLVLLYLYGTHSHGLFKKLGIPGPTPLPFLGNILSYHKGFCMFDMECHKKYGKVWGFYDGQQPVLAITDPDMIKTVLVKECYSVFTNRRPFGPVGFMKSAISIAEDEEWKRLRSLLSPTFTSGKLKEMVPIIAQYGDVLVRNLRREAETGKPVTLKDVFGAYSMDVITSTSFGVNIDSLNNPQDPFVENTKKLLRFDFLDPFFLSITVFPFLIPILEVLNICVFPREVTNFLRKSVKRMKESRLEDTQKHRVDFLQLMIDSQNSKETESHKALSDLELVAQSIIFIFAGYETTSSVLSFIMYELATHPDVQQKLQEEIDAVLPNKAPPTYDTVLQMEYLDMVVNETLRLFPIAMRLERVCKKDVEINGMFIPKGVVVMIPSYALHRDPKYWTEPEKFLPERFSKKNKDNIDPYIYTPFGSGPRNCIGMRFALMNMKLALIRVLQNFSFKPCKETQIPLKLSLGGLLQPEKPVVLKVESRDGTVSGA
A short description of data set [11]: Half life in Swiss albino mouse kidney at 5 mg/kg, po measured during 0.5 to 48 hrs post dose by HPLC/MS/MS method. The data set is classed as ADME, organism-based.
Data set [12] in a line: Half life in Swiss albino mouse lung at 5 mg/kg, po measured during 0.5 to 48 hrs post dose by HPLC/MS/MS method. Type of data set: ADME, organism-based.
In data set [13] the test system is Lung. Description: Drug level in Swiss albino mouse lung at 5 mg/kg, po after 48 hrs assessed as relative Cmax level relative to plasma drug level by HPLC/MS/MS method. The data set is classed as ADME, organism-based. The note with it: in vivo.
Data set [14] deals with Cytochrome P450 2C9 (Homo sapiens, UniProt P11712). Description: Inhibition of CYP2C9 in human hepatocyte microsomes using diclofenac substrate by HPLC/MS/MS method. The data set is classed as ADME.
Cytochrome P450 2C9, sequence (P11712 whole entry): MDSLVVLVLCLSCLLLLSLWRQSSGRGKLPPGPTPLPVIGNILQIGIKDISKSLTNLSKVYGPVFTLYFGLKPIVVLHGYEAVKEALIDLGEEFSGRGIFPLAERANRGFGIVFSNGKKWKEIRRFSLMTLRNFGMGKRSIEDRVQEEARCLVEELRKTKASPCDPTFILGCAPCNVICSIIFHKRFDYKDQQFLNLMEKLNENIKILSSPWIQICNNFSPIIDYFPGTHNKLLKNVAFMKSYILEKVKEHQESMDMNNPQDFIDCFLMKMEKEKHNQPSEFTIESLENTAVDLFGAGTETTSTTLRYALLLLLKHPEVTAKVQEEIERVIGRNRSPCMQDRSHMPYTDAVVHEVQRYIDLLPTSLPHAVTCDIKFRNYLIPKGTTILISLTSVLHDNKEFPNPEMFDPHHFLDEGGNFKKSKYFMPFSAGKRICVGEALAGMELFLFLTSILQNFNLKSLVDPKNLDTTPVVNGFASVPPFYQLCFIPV

For the molecule `N#Cc1ccc(COc2ccc(C#Cc3ccc(C(F)(F)C(O)(Cn4cnnn4)c4ccc(F)cc4F)nc3)cc2)cc1` (single isomer, unassigned; (+)), the Drug uptake worked out at 94% in [1], 65% in data set [9] and 116% in data set [13]. The IC50 is greater than 100 µM in data set [2], greater than 100 µM in data set [7], greater than 200 µM in data set [10] and greater than 200 µM in data set [14]. Besides, the figures for the half-life in data set [3], in data set [11] and in data set [12] were 24 h, 16 to 19 h and 16 to 19 h, respectively. Besides, the MIC50 in data set [4] came out at 7.8 ng/mL. Moreover, the AUC(0-t) in data set [5] was found to be 67000 ng·h/mL. The same molecule came in with a Cmax in data set [6] of 2500 ng/mL. Besides, the Tmax in data set [8] came to 4 h.
